Source: US6767569B1, “Surface decontamination of cooked sausage and processed meat and poultry products” (priority 1999, dated 2004)
Where “and” joins values, the source holds several entries; their conditions need not be identical. Identical values can stand only once.

How the values were obtained:
[1] = Stability of peracetic acid solutions; format: physicochemical
Experimental: Peracetic acid solutions were prepared in deionized water as for Example 2 to nominal concentrations of 1000 and 2000 mg/L. Actual peracetic acid concentrations were measured at 0 and 30 minutes at around 25° C. and 50° C.

[2] = tested on: Listeria monocytogenes ATCC. 43256; assay: D-values for Listeria monocytogenes in peracetic acid solutions (suspension test); format: cell-based
Experimental: Peracetic acid solutions of 500, 1000, and 2000 mg/L (ppm) were prepared as for Example 1, using deionized water. To 100 mL samples of the solutions, 1.7×10^6 Listeria monocytogenes ATCC. 43256 per mL were added and mixed. The samples were maintained at a preselected temperature ([…], ˜15° C., or ˜22° C.). At 10, 20, 30, 40, and 50 seconds contact time, 1 mL was removed, neutralized, and the Listeria monocytogenes organisms remaining were determined by plating on TSA and incubation. […] D-values (time required to kill one log of the test microorganism—in this case, a reduction in microorganisms from 1.7×10^6 initially to 1.7×10^5) were determined, as shown in TABLE 4. D-values below the detection limit of the test are shown as <2 seconds.

E. coli = format: cell-based; conditions: E. coli; 35 °C, 24 hrs
Experimental: Each strain was subcultured on tryptic soy agar (TSA, DIFCO, Detroit, Mich.) slants and stored at 4° C. Strains were individually transferred into 100 mL of sterile 2× BHI (DIFCO, Detroit, Mich.) and incubated at 35° C. for 24 hr. to reach ca. 10^9 colony forming units/mL (CFU/mL). Then, 25 mL of each strain of E. coli was transferred into a sterile bottle (mixture X), and 25 mL of each strain of each strain of Salmonella spp. was transferred into a sterile bottle (mixture Y). Mixtures X and Y were maintained separately throughout the test.
Serial dilutions were made using Butterfields' Phosphate Buffer (BPB, Sigma, St. Louis, Mo.) in 1 mL aliquots prior to inoculation. BPB was prepared as a stock solution by adding 34 g Of KH2PO4 to 500 mL of distilled water. The pH was adjusted to 7.2, and the solution was brought to a volume of 1 L. The BPB stock was autoclaved for 20 min. at 121° C. and 15 lbs. of pressure. […] For glacial acetic acid (U.S.P.-F.C.C., J. T. Baker, Phillipsburg, N.J.), starting concentrations and serial dilutions were 50%, 25%, 12.5%, 6.25%, 3.12%, 1.56%, 0.78%, 0.39%, and a control (no treatment, buffer and culture). […] For peracetic acid 35.0% (STERIS 20™, STERIS Corporation, Mentor, Ohio), starting concentrations and serial dilutions were 17.5%, 8.75%, 4.38%, 2.19%, 1.09%, 0.55%, 0.30%, 0.14%, 0.07%, 0.03%, and a control. For liquid smoke (Hickory Specialties, Brentwood, Tenn.) starting concentrations and serial dilutions were 50%, 25%, 12.5%, 6.25%, 3.12%, 1.56%, 0.78%, 0.39%, and a control. Dilutions were prepared with deionized water.
The test tubes were incubated at 35° C. for 24 hrs. and turbidity was evaluated using McFarland equivalence standards, to study the bacteriostatic properties of the diluted solutions. In addition, each dilution was plated to evaluate the bactericidal properties of, the diluted solutions. Using a 1 μL sterile loop, each concentration and control for either microorganism mixture was streaked on plate count agar (PCA, DIFCO, Detroit, Mich.). A selective agar was also used for each mixture, eosine methylene blue agar (EMB, DIFCO, Detroit, Mich.) for E. coli and xylose lysine decarboxylase agar (XLD, DIFCO, Detroit,Mich.) for Salmonella spp. All plates were incubated for 24 hrs. at 35° C. and were inspected for growth or no growth.

[3] = nominal 1000 mg/L, 26-29 °C, pH 2.7
[4] = nominal 1000 mg/L, 50 °C, pH 2.7
[5] = nominal 2000 mg/L, 26-29 °C, pH 2.6
[6] = nominal 2000 mg/L, 50 °C, pH 2.6

Compound: CC(=O)OO [peracetic acid]
- stability of the solutions over the 30 minute period ([1]; 1000 and 2000 mg/L nominal, around 25 °C and 50 °C): relatively stable
- Concentration at 0 mins [1, 3]: 1347 mg/L
- Concentration at 30 mins [1, 3]: 1355 mg/L
- Concentration at 0 mins [1, 4]: 1310 mg/L
- Concentration at 30 mins [1, 4]: 1284 mg/L
- Concentration at 0 mins [1, 5]: 2016 mg/L
- Concentration at 30 mins [1, 5]: 2017 mg/L
- Concentration at 0 mins [1, 6]: 1937 mg/L
- Concentration at 30 mins [1, 6]: 1959 mg/L
- D-value ([2]; 500 mg/L, 8.3-8.5 °C, pH 3.7-3.7): 2 s
- D-value ([2]; 500 mg/L, 14.7-15.0 °C, pH 3.4-3.6): <2 s
- D-value ([2]; 500 mg/L, 22.7-22.8 °C, pH 3.4-3.6): <2 s
- D-value ([2]; 1000 mg/L, 8.1-8.1 °C, pH 3.2-3.4): <2 s
- D-value ([2]; 1000 mg/L, 15.0-15.2 °C, pH 3.2-3.4): <2 s
- D-value ([2]; 2000 mg/L, 8.1-8.4 °C, pH 3.0-3.1): <2 s
- D-value ([2]; 2000 mg/L, temperature range printed 3.0-3.1 °C, pH 3.0-3.1): <2 s
- Listeria monocytogenes organisms remaining ([2]; 500, 1000, 2000 mg/L, 10-50 seconds contact, except the sample at 500 mg/L, ~8 °C, 10 seconds): destroyed in all cases
- MIC (%) (E. coli): 0.137% and 0.14%
